Test results as given in patent US8747912B2, “Drug delivery system” (Isis Innovation Limited, priority 2000, dated 2014).

Experiment: Release of the drugs from their intercalation compounds in phosphate buffer solution at 37° C.
Format: physicochemical
Conditions: stirred at 1000 rpm, intercalate in [LiAl2(OH)6]Cl.H2O, UV of filtrate
Protocol: Release of the drugs from their intercalation compounds was performed in each case by the addition of 0.0250 g-0.100 g of the intercalation compound to 250 mL phosphate buffer solution at 37° C. […] The release in phosphate buffer at pH 7 and at pH 4 was investigated. Aliquots were removed from the flask at regular time intervals, the solution was filtered and the UV spectrum of the filtrate recorded in a […] quartz cuvette. A baseline scan using the neat solution was recorded prior to the collection of the first spectrum of the filtrate.

SMILES: O=C(O)Cc1ccc(-c2ccccc2)cc1 [4-biphenylacetic acid]
- release of the drug from its intercalation compound (phosphate buffer pH 4, 37° C.): rapid
- release of the drug from its intercalation compound (phosphate buffer pH 7, 37° C.): slower and more controlled

SMILES: O=C([O-])Cc1ccccc1Nc1c(Cl)cccc1Cl.[Na+] [Diclofenac, sodium (2-(2,6-dichloroanilino)phenyl)acetate]
- release of the drug from its intercalation compound (phosphate buffer pH 4, 37° C.): rapid
- release of the drug from its intercalation compound (phosphate buffer pH 7, 37° C.): slower and more controlled

SMILES: COc1ccc2cc([C@H](C)C(=O)O)ccc2c1 [Naproxen, (+)-2-(6-methoxy-2-naphthyl)propionic acid]
- release of the drug from its intercalation compound (phosphate buffer pH 4, 37° C.): rapid
- release of the drug from its intercalation compound (phosphate buffer pH 7, 37° C.): slower and more controlled
